Measured values from patent US11447466B2, “Substituted indole compounds useful as inhibitors of TLR7/8/9” (BRISTOL-MYERS SQUIBB COMPANY, priority 2017, dated 2022).
pIC50: −log10 of the molar value.

Tests used:
Format in all cases: cell-based
human TLR7 = target: T1, human TLR7 (Homo sapiens, UniProt Q9NYK1); experiment: TLR7 inhibition reporter assay (HEK-Blue SEAP reporter, gardiquimod stimulation); settings: HEK-Blue cells overexpressing human TLR7, SEAP reporter, gardiquimod 7.5 μM, 22 hour incubation
T1 construct: host or cells: HEK-Blue cells
T1 sequence (Q9NYK1 27-1049): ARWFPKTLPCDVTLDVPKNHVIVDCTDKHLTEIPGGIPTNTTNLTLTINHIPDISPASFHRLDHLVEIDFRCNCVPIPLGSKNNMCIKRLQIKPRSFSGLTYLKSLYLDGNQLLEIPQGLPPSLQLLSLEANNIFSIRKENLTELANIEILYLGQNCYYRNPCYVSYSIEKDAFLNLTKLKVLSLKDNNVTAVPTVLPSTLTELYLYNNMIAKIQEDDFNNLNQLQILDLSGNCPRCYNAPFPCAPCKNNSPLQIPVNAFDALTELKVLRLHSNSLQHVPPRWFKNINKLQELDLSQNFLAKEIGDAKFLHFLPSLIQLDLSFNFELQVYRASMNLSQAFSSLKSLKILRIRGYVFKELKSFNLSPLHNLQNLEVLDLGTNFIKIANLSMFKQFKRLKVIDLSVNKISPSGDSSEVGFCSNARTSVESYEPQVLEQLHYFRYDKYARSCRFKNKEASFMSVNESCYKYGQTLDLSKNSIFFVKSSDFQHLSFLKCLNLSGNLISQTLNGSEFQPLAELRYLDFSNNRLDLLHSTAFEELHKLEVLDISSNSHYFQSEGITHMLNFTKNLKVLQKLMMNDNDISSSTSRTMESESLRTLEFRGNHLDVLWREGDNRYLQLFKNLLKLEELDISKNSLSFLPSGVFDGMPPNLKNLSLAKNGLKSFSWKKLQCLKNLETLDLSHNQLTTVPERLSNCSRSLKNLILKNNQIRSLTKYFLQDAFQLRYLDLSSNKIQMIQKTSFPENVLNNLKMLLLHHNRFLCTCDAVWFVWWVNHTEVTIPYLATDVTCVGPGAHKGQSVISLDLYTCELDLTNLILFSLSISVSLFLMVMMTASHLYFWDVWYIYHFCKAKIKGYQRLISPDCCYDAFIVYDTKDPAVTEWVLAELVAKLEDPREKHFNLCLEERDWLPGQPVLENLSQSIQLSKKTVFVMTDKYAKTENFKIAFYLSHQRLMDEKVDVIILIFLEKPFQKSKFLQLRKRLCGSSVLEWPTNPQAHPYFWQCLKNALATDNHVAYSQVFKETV
How it was run: (§1)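 Compound treatment: 30 min, RT, 0.05 nM–50 μM final. Agonist: TLR7 gardiquimod 7.5 μM; TLR8 R848 15.9 μM; TLR9 ODN2006 5 nM. Incubation 22 h, 37 °C, 5% CO2. Readout SEAP, HEK-Blue Detection.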

human TLR9 = target: T2, human TLR9 (Homo sapiens, UniProt Q9NR96); experiment: TLR9 inhibition reporter assay (HEK-Blue SEAP reporter, ODN2006 stimulation); settings: HEK-Blue cells overexpressing human TLR9, SEAP reporter, ODN2006 5 nM, 22 hour incubation
T2 construct: host or cells: HEK-Blue cells
T2 sequence (Q9NR96 26-1032): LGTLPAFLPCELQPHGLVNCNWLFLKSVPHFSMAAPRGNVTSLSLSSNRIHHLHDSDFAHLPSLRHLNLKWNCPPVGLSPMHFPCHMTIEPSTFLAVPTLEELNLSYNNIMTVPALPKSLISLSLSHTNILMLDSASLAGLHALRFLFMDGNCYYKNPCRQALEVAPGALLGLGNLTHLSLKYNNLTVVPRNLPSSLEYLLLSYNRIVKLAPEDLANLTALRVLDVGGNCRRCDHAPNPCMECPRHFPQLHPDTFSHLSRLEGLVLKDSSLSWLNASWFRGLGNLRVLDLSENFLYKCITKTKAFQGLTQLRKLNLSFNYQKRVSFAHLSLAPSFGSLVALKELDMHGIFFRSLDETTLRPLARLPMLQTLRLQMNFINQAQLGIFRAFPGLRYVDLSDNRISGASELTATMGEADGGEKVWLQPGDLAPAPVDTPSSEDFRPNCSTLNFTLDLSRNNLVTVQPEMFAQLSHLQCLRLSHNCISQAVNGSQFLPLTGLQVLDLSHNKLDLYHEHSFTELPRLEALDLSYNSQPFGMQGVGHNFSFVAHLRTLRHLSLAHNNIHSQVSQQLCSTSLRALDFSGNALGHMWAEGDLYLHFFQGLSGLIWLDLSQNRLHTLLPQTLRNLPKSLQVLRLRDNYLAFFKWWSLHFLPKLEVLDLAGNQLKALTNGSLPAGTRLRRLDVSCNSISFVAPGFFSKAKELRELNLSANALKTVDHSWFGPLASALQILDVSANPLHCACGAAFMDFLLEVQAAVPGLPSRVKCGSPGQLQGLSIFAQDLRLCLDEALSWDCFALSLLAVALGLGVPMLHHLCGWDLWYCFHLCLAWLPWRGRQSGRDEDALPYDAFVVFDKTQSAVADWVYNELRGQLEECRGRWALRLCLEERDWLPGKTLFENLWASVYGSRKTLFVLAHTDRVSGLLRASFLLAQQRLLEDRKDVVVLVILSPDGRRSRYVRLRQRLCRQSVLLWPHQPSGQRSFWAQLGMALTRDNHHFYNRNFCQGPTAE
How it was run: as §1

human TLR8 = target: T3, human TLR8 (Homo sapiens, UniProt Q9NR97); experiment: TLR8 inhibition reporter assay (HEK-Blue SEAP reporter, R848 stimulation); settings: HEK-Blue cells overexpressing human TLR8, SEAP reporter, R848 15.9 μM, 22 hour incubation
T3 construct: host or cells: HEK-Blue cells
T3 sequence (Q9NR97 27-1041): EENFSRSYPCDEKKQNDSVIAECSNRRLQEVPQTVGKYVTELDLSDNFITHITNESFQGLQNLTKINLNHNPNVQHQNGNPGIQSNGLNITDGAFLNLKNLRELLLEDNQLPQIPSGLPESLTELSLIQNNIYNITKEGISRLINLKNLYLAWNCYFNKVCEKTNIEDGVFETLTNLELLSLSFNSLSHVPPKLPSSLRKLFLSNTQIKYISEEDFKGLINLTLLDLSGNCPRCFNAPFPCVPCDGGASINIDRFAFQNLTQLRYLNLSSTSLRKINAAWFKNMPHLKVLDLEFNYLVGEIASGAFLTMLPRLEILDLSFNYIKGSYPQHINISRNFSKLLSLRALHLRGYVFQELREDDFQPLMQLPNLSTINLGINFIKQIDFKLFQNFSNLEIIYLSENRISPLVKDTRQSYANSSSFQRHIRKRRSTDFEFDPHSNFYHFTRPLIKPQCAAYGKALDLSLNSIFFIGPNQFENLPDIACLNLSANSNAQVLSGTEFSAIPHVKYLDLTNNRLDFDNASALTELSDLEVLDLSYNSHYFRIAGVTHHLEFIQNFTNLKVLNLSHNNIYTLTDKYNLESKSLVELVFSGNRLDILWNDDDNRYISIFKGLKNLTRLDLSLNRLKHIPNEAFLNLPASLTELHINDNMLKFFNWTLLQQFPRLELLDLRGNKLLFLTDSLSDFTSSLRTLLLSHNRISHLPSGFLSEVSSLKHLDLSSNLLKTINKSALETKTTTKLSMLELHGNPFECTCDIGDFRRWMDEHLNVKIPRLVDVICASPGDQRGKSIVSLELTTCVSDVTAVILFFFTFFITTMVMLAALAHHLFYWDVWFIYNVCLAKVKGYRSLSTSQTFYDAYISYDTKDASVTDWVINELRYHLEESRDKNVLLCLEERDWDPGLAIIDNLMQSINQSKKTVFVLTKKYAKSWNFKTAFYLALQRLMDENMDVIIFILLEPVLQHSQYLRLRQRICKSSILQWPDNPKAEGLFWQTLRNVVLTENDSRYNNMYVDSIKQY
How it was run: as §1

| Compound | pIC50 (human TLR7) | pIC50 (human TLR9) | pIC50 (human TLR8) |
| --- | --- | --- | --- |
| CC(C)c1c(-c2cc(-c3cccc(C(N)=O)c3)c(=O)n(C)c2)[nH]c2ccc(C3CCNCC3)cc12 [Example 58, 3-(5-(3-isopropyl-5-(piperidin-4-yl)-1H-indol-2-yl)-1-methyl-2-oxo-1,2-dihydropyridin-3-yl)benzamide] | 8.27 | 5.46 | 6.65 |
| CC(C)c1c(-c2cc(CCC(C)(C)C)c(=O)n(C)c2)[nH]c2ccc(C3CCNCC3)cc12 [Example 61, 3-(3,3-dimethylbutyl)-5-(3-isopropyl-5-(piperidin-4-yl)-1H-indol-2-yl)-1-methylpyridin-2(1H)-one] | 5.66 | 5.68 | 5.64 |
| CCCNC(=O)c1cc(-c2[nH]c3ccc(C4CCNCC4)cc3c2C(C)C)cn(C)c1=O [Example 64, 5-(3-isopropyl-5-(piperidin-4-yl)-1H-indol-2-yl)-1-methyl-2-oxo-N-propyl-1,2-dihydropyridine-3-carboxamide] | 6.32 | 5.13 | 5.97 |
| Cc1c(-c2[nH]c3ccc(C4CCNCC4)cc3c2C(C)C)cn(C)c(=O)c1-c1cccnc1 [Example 65, 5-(3-isopropyl-5-(piperidin-4-yl)-1H-indol-2-yl)-1,4-dimethyl-[3,3′-bipyridin]-2(1H)-one] | 6.01 | 5.51 | 7.12 |
| CCc1cc(-c2[nH]c3ccc(C4CCNCC4)cc3c2C(C)C)cn(C)c1=O [Example 67, 3-ethyl-5-(3-isopropyl-5-(piperidin-4-yl)-1H-indol-2-yl)-1-methylpyridin-2(1H)-one] | 8.37 | 6.04 | 8.23 |
| CCc1cc(-c2[nH]c3ccc(C4CCNCC4)cc3c2C(C)C)cn(CC)c1=O [Example 68, 1,3-diethyl-5-(3-isopropyl-5-(piperidin-4-yl)-1H-indol-2-yl)pyridin-2(1H)-one] | 8.07 | 5.27 | 8.01 |
| CC(C)c1c(-c2cc(CO)c(=O)n(C)c2)[nH]c2ccc(C3CCNCC3)cc12 [Example 70, 3-(hydroxymethyl)-5-(3-isopropyl-5-(piperidin-4-yl)-1H-indol-2-yl)-1-methylpyridin-2(1H)-one] | 8.07 | 5.61 | 7.58 |
| Cc1cc(-c2[nH]c3ccc(C4CCN(CC(=O)N(C)C)CC4)cc3c2C(C)C)cn(C)c1=O [Example 71, 2-(4-(2-(1,5-dimethyl-6-oxo-1,6-dihydropyridin-3-yl)-3-isopropyl-1H-indol-5-yl)piperidin-1-yl)-N,N-dimethylacetamide] | 8.55 | 4.96 | 8.29 |
| Cc1cc(-c2[nH]c3ccc(C4CCN(Cc5ncn(C)n5)CC4)cc3c2C(C)C)cn(C)c1=O [Example 72, 5-(3-isopropyl-5-(1-((1-methyl-1H-1,2,4-triazol-3-yl)methyl)piperidin-4-yl)-1H-indol-2-yl)-1,3-dimethylpyridin-2(1H)-one] | 7.66 | ≤ 4.30 | 7.76 |

Continued by rising pIC50 (human TLR7), values first:

| pIC50 (human TLR7) | pIC50 (human TLR9) | pIC50 (human TLR8) | Compound |
| --- | --- | --- | --- |
| 6.48 | ≤ 4.30 | 6.75 | CC(C)c1c(-c2cc(C(=O)N3CCCC3)c(=O)n(C)c2)[nH]c2ccc(C3CCNCC3)cc12 [Example 69, 5-(3-isopropyl-5-(piperidin-4-yl)-1H-indol-2-yl)-1-methyl-3-(pyrrolidine-1-carbonyl) pyridin-2(1H)-one] |
| 7.04 | 5.51 | 6.68 | CC(=O)Nc1cccc(-c2cc(-c3[nH]c4ccc(C5CCNCC5)cc4c3C(C)C)cn(C)c2=O)c1 [Example 60, N-(3-(5-(3-isopropyl-5-(piperidin-4-yl)-1H-indol-2-yl)-1-methyl-2-oxo-1,2-dihydropyridin-3-yl)phenyl)acetamide] |
| 7.33 | 5.23 | 6.57 | CNC(=O)c1cccc(-c2cc(-c3[nH]c4ccc(C5CCNCC5)cc4c3C(C)C)cn(C)c2=O)c1 [Example 59, 3-(5-(3-isopropyl-5-(piperidin-4-yl)-1H-indol-2-yl)-1-methyl-2-oxo-1,2-dihydropyridin-3-yl)-N-methylbenzamide] |
| 7.68 | 5.36 | 8.31 | Cc1cc(-c2[nH]c3ccc(C4CCN(CCC(C)(C)O)CC4)cc3c2C(C)C)c(C)n(C)c1=O [Example 74, 5-(5-(1-(3-hydroxy-3-methylbutyl)piperidin-4-yl)-3-isopropyl-1H-indol-2-yl)-1,3,6-trimethylpyridin-2(1H)-one] |
| 7.90 | 6.12 | 7.15 | CC(C)c1cc(-c2[nH]c3ccc(C4CCNCC4)cc3c2C(C)C)cn(C)c1=O [Example 66, 3-isopropyl-5-(3-isopropyl-5-(piperidin-4-yl)-1H-indol-2-yl)-1-methylpyridin-2(1H)-one] |
| 8.10 | 5.22 | 8.48 | Cc1c(-c2[nH]c3ccc(C4CCN(CCC(C)(C)O)CC4)cc3c2C(C)C)cn(C)c(=O)c1C [Example 73, 5-(5-(1-(3-hydroxy-3-methylbutyl)piperidin-4-yl)-3-isopropyl-1H-indol-2-yl)-1,3,4-trimethylpyridin-2(1H)-one] |
